Data published in US9687479B2, “Multisubstituted aromatic compounds as serine protease inhibitors” (VERSEON CORPORATION, priority 2013, dated 2017).
Like-named read-outs stand apart in the source and are kept apart here.

Key:
Human KLKB1 = Human KLKB1 (Homo sapiens (Human), UniProt P03952); experiment: KLKB1 kallikrein activity inhibition assay (chromogenic substrate S-2302); type: biochemical
Outline: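 Enzyme at a final 3 nM was assayed in 0.05 M Tris pH 7.4, 0.01 M NaCl and 0.2% PEG-8000 at room temperature, with compounds as ten-point threefold dilutions.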

[1] = target: Recombinant human tissue kallikrein (KLK1) (Homo sapiens (Human), UniProt P06870); experiment: KLK1 kallikrein activity inhibition assay (Pro-Phe-Arg-AMC substrate); type: biochemical
Recombinant human tissue kallikrein (KLK1), sequence (P06870 25-262): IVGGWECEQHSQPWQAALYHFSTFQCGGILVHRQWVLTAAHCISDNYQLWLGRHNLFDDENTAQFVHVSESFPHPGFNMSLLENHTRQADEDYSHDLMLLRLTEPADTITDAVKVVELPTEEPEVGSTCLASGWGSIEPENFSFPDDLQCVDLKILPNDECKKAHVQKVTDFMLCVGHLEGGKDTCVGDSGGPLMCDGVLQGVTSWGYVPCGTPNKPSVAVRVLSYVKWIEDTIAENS
Description: The KLK1 kallikrein activity reported herein (e.g., Tables B and C) was obtained as follows. Recombinant human tissue kallikrein (KLK1) was obtained from R&D Systems. […] KLK1 enzyme is activated by incubating 0.5 mg/ml KLK1 combined with 0.1 μg/ml thermolysin in a buffer of 0.05 M Tres (pH 7.5), 0.15 M NaCl, and 0.01 M CaCl2 for one hour at 37° C. The thermolysin is then deactivated by the addition of equal parts 20 mM 1, 10 phenanthroline solution in water. The activated KLK1 solution is then added to CHES buffer (0.05 M CHES, 0.15 M NaCl, 0.01 M CaCl2, pH 10) for a final concentration of 5 nM along with the test article and incubated for 10 minutes. […] Substrate activation is read 10 minutes after substrate addition using a Synergy H1 multifunction plate reader (Biotek) programmed with a 360 nm excitation wavelength and a 480 nm emission wavelength. Inhibitor response was established by adding test compound as ten point, three-fold serial dilutions, as known in the art. The IC50 was calculated by plotting the percent (%) inhibition against compound concentration and fitting the data to a constrained four parameter sigmoidal curve, as known in the art.

Human thrombin = Human thrombin (Homo sapiens (Human), UniProt P00734); experiment: Thrombin protease activity inhibition assay (chromogenic substrate S-2238); type: biochemical; details: 3 nM thrombin, 125 μM S-2238, 10 min pre-incubation, RT
Outline: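 Thrombin at 3 nM final in 0.05 M Tris pH 7.4, 0.015 M NaCl, 0.01% PEG-8000, at room temperature; compounds as ten-point three-fold dilutions.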

[2] = Pharmacokinetics in mice (i.v. and p.o.); type: in vivo, male CD-1 mice; details: plasma
Description: Each compound is administered intravenously (i.v.) as a single dose via tail vein or orally (p.o.) as a single dose via gastric gavage to male CD-1 mice of nominal weights between 20 g and 26 g. Nominal doses are 1 mg/kg and 5 mg/kg for i.v. and p.o., respectively. In some examples (dose type A), both p.o. and i.v. doses are prepared by dissolving the test compound in 5% dimethyl acetamide and diluted in tetraethylene glycol for a final concentration of 0.25 mg/mL. In other examples (dose type B), i.v. doses are prepared by dissolving test compounds in 20% dimethyl acetamide, 40% polyethylene glycol 300 and 40% phosphate buffered saline, and p.o. doses are prepared by dissolving test compounds in carboxymethyl cellulose suspension (1% by weight) in water and 2.5% dimethyl acetamide.
Animals are housed in standard holding cages with food and water available ad libitum except for animals used for p.o. dosing which are fasted overnight prior to dosing. Samples are taken in triplicate via cardiac puncture at times prior to dosing and at 0.083 (i.v. only), 0.25, 0.5, 1, 2, 4, 8, and 24 hours after administration. Plasma is obtained by centrifuge and stored frozen until analyzed by LC-MS/MS using a Shimadzu VP System HPLC coupled to a Applied Biosystems MDS SCIEX API 3000 triple quadrapole MS. Assay results are calibrated using reference samples prepared in a range between 1.5 and 5000 ng/mL.
Pharmacokinetic parameters are calculated from mean concentration values using a non-compartmental analysis as described in the following and as apparent to those of ordinary skill in the art. Half-lives (t1/2) and elimination rate constants (λ) are determined by log linear regression using equal weighting on the last three finite sample time points. Concentration at time zero (C0) for the i.v. data is established by the extrapolation of log linear regression using equal weighting on the first three sample time points. Area under the curve (AUC) values are calculated using linear trapezoidal integration. Systemic clearance (CL) is calculated as the ratio of dosage and AUC. […] Percent oral bioavailability (% F) is determined from the ratio of i.v. and p.o. AUC values weighted by dosage.

Human KLKB1, sequence (P03952 391-638 limits assumed): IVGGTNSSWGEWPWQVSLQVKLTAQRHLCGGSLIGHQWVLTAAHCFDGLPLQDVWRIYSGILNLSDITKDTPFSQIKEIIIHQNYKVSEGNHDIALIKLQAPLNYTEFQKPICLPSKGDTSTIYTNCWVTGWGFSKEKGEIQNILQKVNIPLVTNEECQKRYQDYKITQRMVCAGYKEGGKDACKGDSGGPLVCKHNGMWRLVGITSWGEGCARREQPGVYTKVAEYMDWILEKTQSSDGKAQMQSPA
Human KLKB1, sequence (P03952 20-390 partner limits assumed): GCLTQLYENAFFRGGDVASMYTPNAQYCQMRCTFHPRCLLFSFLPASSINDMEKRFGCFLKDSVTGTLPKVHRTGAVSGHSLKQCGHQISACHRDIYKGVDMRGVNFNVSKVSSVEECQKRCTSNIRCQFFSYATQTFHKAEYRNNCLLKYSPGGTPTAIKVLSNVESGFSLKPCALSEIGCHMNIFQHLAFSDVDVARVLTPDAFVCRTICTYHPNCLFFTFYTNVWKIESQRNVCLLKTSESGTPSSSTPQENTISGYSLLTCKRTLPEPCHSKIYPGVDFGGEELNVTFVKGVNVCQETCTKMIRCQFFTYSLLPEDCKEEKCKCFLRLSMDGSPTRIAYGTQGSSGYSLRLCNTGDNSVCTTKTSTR

| SMILES | IC50 (Human KLKB1; Table C) | IC50 ([1]; Table C) | IC50 (Human KLKB1; Table B) | IC50 ([1]; Table B) | IC50 (Human thrombin) | other results |
| --- | --- | --- | --- | --- | --- | --- |
| COc1ccccc1C(=O)n1nc(-c2ncccn2)nc1NCc1ccccc1 [Cmpd 18] | 100 to 1000 nM | 10000 to 100000 nM | – | – | – | – |
| O=C(c1cccc2c1OCCO2)n1nc(-c2cccn(Cc3ccccn3)c2=O)cc1NCc1ccc(Cl)s1 [Cmpd 113, 3-(5-[(5-chlorothiophen-2-yl)methyl]amino-1-[(2,3-dihydro-1,4-benzodioxin-5-yl)carbonyl]-1H-pyrazol-3-yl)-1-(pyridin-2-ylmethyl)-1,2-dihydropyridin-2-one] | – | – | 100 to 1000 nM | 10000 to 100000 nM | < 100 nM | – |
| O=C(c1ccccc1Cl)n1nc(-c2cccn(Cc3cccnc3)c2=O)cc1NCc1ccc(Cl)s1 [Cmpd 247, 3-1-[(2-chlorophenyl)carbonyl]-5-[(5-chlorothiophen-2-yl)methyl]amino-1H-pyrazol-3-yl-1-(pyridin-3-ylmethyl)-1,2-dihydropyridin-2-one] | – | – | < 100 nM | > 100000 nM | < 100 nM | – |
| O=C(c1ccc(N2CCOCC2)cc1)n1nc(-c2cccn(Cc3cccnc3)c2=O)cc1NCc1ccc(Cl)s1 [Cmpd 213, 3-(5-[(5-chlorothiophen-2-yl)methyl]amino-1-[4-(morpholin-4-yl)phenyl]carbonyl-1H-pyrazol-3-yl)-1-(pyridin-3-ylmethyl)-1,2-dihydropyridin-2-one] | – | – | 100 to 1000 nM | > 100000 nM | < 100 nM | – |
| COc1ccc(C(=O)n2nc(-c3cccn(Cc4cccnc4)c3=O)cc2NCc2ccc(Cl)s2)c(OC)c1 [Cmpd 126, 3-(5-[(5-chlorothiophen-2-yl)methyl]amino-1-[(2,4-dimethoxyphenyl)carbonyl]-1H-pyrazol-3-yl)-1-(pyridin-3-ylmethyl)-1,2-dihydropyridin-2-one] | – | – | 1000 to 10000 nM | > 100000 nM | < 100 nM | – |
| COc1ccccc1C(=O)n1nc(-c2cccn(CC(=O)N3CCOCC3)c2=O)cc1NCc1ccc(Cl)s1 [Cmpd 145, 3-(5-[(5-chlorothiophen-2-yl)methyl]amino-1-[(2-methoxyphenyl)carbonyl]-1H-pyrazol-3-yl)-1-[2-(morpholin-4-yl)-2-oxoethyl]-1,2-dihydropyridin-2-one] | – | – | 1000 to 10000 nM | > 100000 nM | < 100 nM | – |
| O=C(c1ccccc1Cl)n1nc(-c2cccn(Cc3ccncc3)c2=O)cc1NCc1ccc(Cl)s1 [Cmpd 248, 3-1-[(2-chlorophenyl)carbonyl]-5-[(5-chlorothiophen-2-yl)methyl]amino-1H-pyrazol-3-yl-1-(pyridin-4-ylmethyl)-1,2-dihydropyridin-2-one] | – | – | 100 to 1000 nM | > 100000 nM | < 100 nM | – |
| COCCn1cccc(-c2cc(NCc3ccc(Cl)s3)n(C(=O)c3ccccc3Cl)n2)c1=O [Cmpd 242, 3-1-[(2-chlorophenyl)carbonyl]-5-[(5-chlorothiophen-2-yl)methyl]amino-1H-pyrazol-3-yl-1-(2-methoxyethyl)-1,2-dihydropyridin-2-one] | – | – | 100 to 1000 nM | > 100000 nM | < 100 nM | – |
| COc1ccccc1C(=O)n1nc(-c2ccc[nH]c2=O)cc1NCc1ccc(Cl)s1 [Cmpd 132, 3-(5-[(5-chlorothiophen-2-yl)methyl]amino-1-[(2-methoxyphenyl)carbonyl]-1H-pyrazol-3-yl)-1,2-dihydropyridin-2-one] | – | – | 1000 to 10000 nM | > 100000 nM | < 100 nM | – |
| CC(C)(C)C(=O)n1nc(-c2cccn(Cc3cccnn3)c2=O)cc1NCc1ccc(Cl)s1 [Cmpd 81, 3-(5-[(5-chlorothiophen-2-yl)methyl]amino-1-(2,2-dimethylpropanoyl)-1H-pyrazol-3-yl)-1-(pyridazin-3-ylmethyl)-1,2-dihydropyridin-2-one] | – | – | 1000 to 10000 nM | > 100000 nM | < 100 nM | – |
| COc1ccccc1C(=O)n1nc(-c2cccn(Cc3cccnn3)c2=O)cc1NCc1ccc(Cl)s1 [Cmpd 138, 3-(5-[(5-chlorothiophen-2-yl)methyl]amino-1-[(2-methoxyphenyl)carbonyl]-1H-pyrazol-3-yl)-1-(pyridazin-3-ylmethyl)-1,2-dihydropyridin-2-one] | – | – | 100 to 1000 nM | > 100000 nM | < 100 nM | – |
| CC(C)(C)C(=O)n1nc(C2CCNCC2)c(F)c1NCc1ccc(Cl)s1 [Cmpd 24] | – | – | – | – | – | bioavailability ([2]; male, CD-1, mouse, po, 5 mg/kg, read-out: % F): 70%; AUC ([2]; mouse, iv, male CD-1 mice, single i.v. dose 1 mg/kg, dose type A (5% dimethyl acetamide, tetraethylene glycol), read-out: i.v. AUC): 200 ng·h/mL; C0 ([2]; mouse, iv, male CD-1 mice, single i.v. dose 1 mg/kg, dose type A (5% dimethyl acetamide, tetraethylene glycol), read-out: i.v. C0): 200 ng/mL; clearance ([2]; mouse, iv, male CD-1 mice, single i.v. dose 1 mg/kg, dose type A (5% dimethyl acetamide, tetraethylene glycol), read-out: i.v. CL (converted)): 83.3 mL/min/kg; Vd ([2]; mouse, iv, male CD-1 mice, single i.v. dose 1 mg/kg, dose type A (5% dimethyl acetamide, tetraethylene glycol), read-out: i.v. Vd): 8 L/kg; half-life ([2]; mouse, iv, male CD-1 mice, single i.v. dose 1 mg/kg, dose type A (5% dimethyl acetamide, tetraethylene glycol), read-out: i.v. t1/2 (converted)): 1 h; AUC ([2]; mouse, po, male CD-1 mice, single p.o. dose 5 mg/kg, dose type A (5% dimethyl acetamide, tetraethylene glycol), read-out: p.o. AUC): 600 ng·h/mL; half-life ([2]; mouse, po, male CD-1 mice, single p.o. dose 5 mg/kg, dose type A (5% dimethyl acetamide, tetraethylene glycol), read-out: p.o. t1/2 (converted)): 1 h |

Further lines, with some results ahead:

| IC50 (Human KLKB1; Table C) | IC50 ([1]; Table C) | IC50 (Human KLKB1; Table B) | IC50 ([1]; Table B) | IC50 (Human thrombin) | SMILES | other results |
| --- | --- | --- | --- | --- | --- | --- |
| – | – | 1000 to 10000 nM | 10000 to 100000 nM | – | Nc1ccccc1C(=O)n1nc(-c2ncccc2F)cc1NCc1ccc(Cl)s1 [Cmpd 276] | – |
| 100 to 1000 nM | 10000 to 100000 nM | – | – | – | Cc1ccccc1C(=O)n1nc(-c2ccccn2)nc1NCc1ccc(Cl)s1 [Cmpd 391] | – |
| – | – | 1000 to 10000 nM | > 100000 nM | – | O=C(c1ccoc1)n1nc(C2CCOCC2)c(F)c1NCc1ccc(Cl)s1 [Cmpd 294] | – |
| – | – | 100 to 1000 nM | > 100000 nM | – | O=C(c1ccsc1)n1nc(-c2cccnn2)cc1NCc1ccc(Cl)s1 [Cmpd 292] | – |
| 100 to 1000 nM | > 100000 nM | – | – | – | O=C(c1ccsc1)n1nc(-c2ccncc2)nc1NCc1ccccc1 [Cmpd 407] | – |
| – | – | 1000 to 10000 nM | > 100000 nM | – | COc1ccccc1C(=O)n1nc(C2CCCCC2O)cc1NCc1ccc(Cl)s1 (centres unmarked) [Cmpd 282] | – |
| 10000 to 100000 nM | 100 to 1000 nM | – | – | – | COc1ccccc1C(=O)n1nc(-c2ccccn2)nc1NCc1nccs1 [Cmpd 332] | – |
| 1000 to 10000 nM | 1000 to 10000 nM | – | – | – | COc1ccc(CNc2nc(-c3cccnc3)nn2C(=O)c2ccccc2)cc1 [Cmpd 361] | – |
| < 100 nM | 10000 to 100000 nM | – | – | – | COc1ccccc1C(=O)n1nc(C2CCNCC2)nc1NCc1ccc(Cl)s1 [Cmpd 387] | – |
| – | – | 1000 to 10000 nM | 10000 to 100000 nM | – | Nc1ccccc1C(=O)n1nc(-c2ccco2)cc1NCc1ccc(Cl)s1 [Cmpd 277] | – |
| 1000 to 10000 nM | 1000 to 10000 nM | – | – | – | COc1ccccc1C(=O)n1nc(-c2cccnc2)nc1SC [Cmpd 366, 3-1-[(2-methoxyphenyl)carbonyl]-5-(methylsulfanyl)-1H-1,2,4-triazol-3-ylpyridine] | – |
| 100 to 1000 nM | 10000 to 100000 nM | – | – | – | COc1ccc(C(=O)n2nc(C3CCOCC3)nc2NCc2ccc(Cl)s2)c(OC)c1 [Cmpd 384] | – |
| 1000 to 10000 nM | 10000 to 100000 nM | – | – | – | COc1ccc(CNc2nc(-c3ccccn3)nn2C(=O)CCc2ccccc2)cc1 [Cmpd 323] | – |
| 100 to 1000 nM | 10000 to 100000 nM | – | – | – | COc1ccccc1C(=O)n1nc(-c2ccc(N(C)C)cc2)nc1NCc1ccc(Cl)s1 [Cmpd 393] | – |
| 100 to 1000 nM | 10000 to 100000 nM | – | – | – | O=C(c1ccccc1)n1nc(-c2ccccn2)nc1NCc1ccccc1 [Cmpd 362] | – |
| – | – | 100 to 1000 nM | > 100000 nM | – | O=C(c1ccsc1)n1nc(-c2ccccn2)cc1NCc1ccc(Cl)s1 [Cmpd 293] | – |
| 1000 to 10000 nM | 1000 to 10000 nM | – | – | – | COc1ccc(CNc2nc(-c3ccccn3)nn2C(=O)c2ccccc2)cc1 [Cmpd 360] | – |
